Like-named read-outs stand apart in the source and are kept apart here. Bridge positions count the residues as written; N and C are the ends. Square brackets hold non-standard residues; d marks the D form. Peptide text beside a SMILES is read from it.
Key:
Format in all cases: cell-based
MC3R = MC3R (Homo sapiens, UniProt P41968); assay: cAMP assay (β-galactosidase reporter, cAMP Hunter), MC3R; settings: for Ratios of EC50 values MC ¾: EC50(MC3R)/EC50(MC4R)
From the text: (§1) cAMP Accumulation Measurement Via a β-Galactosidase (β-Gal) Reporter System
(§2) A chemiluminescence readout system that uses an enzyme fragment complementation (EFC) system with β-galactosidase (β-Gal) as the functional reporter system was used. This assay system for various melanocortin receptor systems is commercially available (cAMP Hunter GPCR assay system, Discoverx Corp, Fremont, Calif.). This assay utilizes the β-Gal enzyme that is split into two complementary portions; EA for Enzyme Acceptor and ED for Enzyme Donor. In the assay, the ED portion fused to cAMP is made to compete with cAMP generated by cells for binding to a cAMP-specific antibody. The EA is then added to form active β-Gal with any unbound ED-cAMP.
(§3) Briefly, 10000 cells per well are plated overnight and each well (cells incubated with 10 μl assay buffer) is then incubated with 4× serial concentration of the test compound in the cell assay buffer (5 μL) and cAMP antibody reagent (5 μL) for 30 min at 37° C. The cell lysis buffer (20 μL) containing ED-cAMP coupled enzyme fragment and the reporter substrate (Emerald II-Galacton Star, 5:1) is then added and incubated for 60 min at room temperature. Next, 20 μL of EA β-Gal fragment reagent is added.

MC4R = MC4R (Homo sapiens, UniProt P32245); assay: cAMP assay (β-galactosidase reporter, cAMP Hunter), MC4R
From the text: as §1, §2, §3

MC1R = MC1R (Homo sapiens, UniProt Q01726); assay: cAMP assay (β-galactosidase reporter, cAMP Hunter), MC1R; settings: for Ratios of EC50 values MC ¼: EC50(MC1R)/EC50(MC4R)
From the text: as §1, §2, §3

MC5R = MC5R (Homo sapiens, UniProt P33032); assay: cAMP assay (β-galactosidase reporter, cAMP Hunter), MC5R; settings: for Ratios of EC50 values MC 5/4: EC50(MC5R)/EC50(MC4R)
From the text: as §1, §2, §3

[1] = agonist cAMP stimulation, read-out: cAMP Assay (EC-50) MC3R
[2] = agonist cAMP stimulation, read-out: cAMP Assay (EC-50) MC4R
[3] = agonist cAMP stimulation, read-out: cAMP Assay (EC-50) MC1R
[4] = agonist cAMP stimulation, read-out: cAMP Assay (EC-50) MC5R
[5] = agonist cAMP stimulation, in uM, read-out: cAMP Assay (EC-50) MC3R

Sequence of MC5R (P33032 whole entry): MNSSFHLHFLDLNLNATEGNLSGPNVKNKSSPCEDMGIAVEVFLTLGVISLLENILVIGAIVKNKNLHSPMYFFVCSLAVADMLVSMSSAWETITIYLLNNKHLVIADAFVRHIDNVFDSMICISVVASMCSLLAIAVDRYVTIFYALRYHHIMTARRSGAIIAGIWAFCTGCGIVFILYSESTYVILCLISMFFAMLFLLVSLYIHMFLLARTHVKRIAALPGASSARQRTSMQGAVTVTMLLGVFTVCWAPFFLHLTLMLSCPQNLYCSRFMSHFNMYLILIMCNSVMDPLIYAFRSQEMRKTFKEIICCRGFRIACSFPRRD
Sequence of MC1R (Q01726 whole entry): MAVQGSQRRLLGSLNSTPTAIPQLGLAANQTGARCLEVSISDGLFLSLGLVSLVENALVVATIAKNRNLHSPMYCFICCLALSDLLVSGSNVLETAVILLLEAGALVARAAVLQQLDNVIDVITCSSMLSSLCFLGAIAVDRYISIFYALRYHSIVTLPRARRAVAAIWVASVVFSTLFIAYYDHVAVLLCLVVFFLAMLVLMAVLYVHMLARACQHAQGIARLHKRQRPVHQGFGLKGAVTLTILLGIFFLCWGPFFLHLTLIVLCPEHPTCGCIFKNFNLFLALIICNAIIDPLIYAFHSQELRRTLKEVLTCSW
Sequence of MC4R (P32245 whole entry): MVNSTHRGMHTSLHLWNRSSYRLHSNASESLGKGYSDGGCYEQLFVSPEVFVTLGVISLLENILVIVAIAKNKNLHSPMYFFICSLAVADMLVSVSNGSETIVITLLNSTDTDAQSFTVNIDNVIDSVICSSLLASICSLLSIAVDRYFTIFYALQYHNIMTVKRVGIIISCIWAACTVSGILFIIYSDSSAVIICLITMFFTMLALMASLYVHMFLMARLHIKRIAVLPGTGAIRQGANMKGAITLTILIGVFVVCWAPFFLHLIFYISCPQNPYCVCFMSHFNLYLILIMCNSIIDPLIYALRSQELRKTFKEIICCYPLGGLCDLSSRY
Sequence of MC3R (P41968 whole entry): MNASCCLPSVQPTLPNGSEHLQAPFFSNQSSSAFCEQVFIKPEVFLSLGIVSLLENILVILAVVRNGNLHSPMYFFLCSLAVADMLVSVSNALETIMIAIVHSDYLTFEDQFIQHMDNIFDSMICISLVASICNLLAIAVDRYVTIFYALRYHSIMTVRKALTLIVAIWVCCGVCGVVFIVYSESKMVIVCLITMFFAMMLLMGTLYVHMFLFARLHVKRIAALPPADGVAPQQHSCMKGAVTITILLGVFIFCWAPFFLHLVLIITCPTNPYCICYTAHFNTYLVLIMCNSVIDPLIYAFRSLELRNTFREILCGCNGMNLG

With CC(=O)N[C@@H](CCCNC(=N)N)C(=O)N[C@H]1CSSC[C@@H](C(N)=O)NC(=O)[C@H](Cc2c[nH]c3ccccc23)NC(=O)[C@H](CCCNC(=N)N)NC(=O)[C@@H](Cc2ccccc2)NC(=O)[C@H](Cc2c[nH]cn2)NC(=O)[C@@H](CC(C)C)NC1=O [Compound 1, Ac-Arg-cyclo[Cys-D-Leu-His-D-Phe-Arg-Trp-Cys]-NH2] the “Ratios of EC50 values MC ¾” value (MC3R) was 1.13, the EC50 (MC3R; [1]) was 0.00079 µM and the EC50 (MC4R; [2]) was 0.0007 µM. The “Ratios of EC50 values MC ¼” value (MC1R) was 0.68, the EC50 (MC1R; [3]) was 0.00047 µM and the “Ratios of EC50 values MC 5/4” value (MC5R) was 130. The EC50 (MC5R; [4]) was 0.091 µM.

CC[C@@H](C)[C@H]1NC(=O)[C@@H](NC(=O)[C@H](CCCNC(=N)N)NC(C)=O)CSSC[C@@H](C(N)=O)NC(=O)[C@H](Cc2c[nH]c3ccccc23)NC(=O)[C@H](CCCNC(=N)N)NC(=O)[C@@H](Cc2ccccc2)NC(=O)[C@H](Cc2c[nH]cn2)NC1=O [Compound 2, Ac-Arg-cyclo[Cys-D-Ile-His-D-Phe-Arg-Trp-Cys]-NH2] was tested, and the “Ratios of EC50 values MC ¾” value (MC3R) was 0.96, the EC50 (MC3R; [1]) was 0.00096 µM and the EC50 (MC4R; [2]) was 0.001 µM. For the same compound, the “Ratios of EC50 values MC ¼” value (MC1R) was 0.69, the EC50 (MC1R; [3]) was 0.00069 µM and the “Ratios of EC50 values MC 5/4” value (MC5R) was 420. For the same compound, the EC50 (MC5R; [4]) was 0.42 µM.

For CC(=O)N[C@@H](CCCNC(=N)N)C(=O)N[C@H]1CSSC[C@@H](C(N)=O)NC(=O)[C@H](Cc2c[nH]c3ccccc23)NC(=O)[C@H](CCCNC(=N)N)NC(=O)[C@@H](Cc2ccccc2)NC(=O)[C@H](Cc2c[nH]cn2)NC(=O)[C@@H](C(C)(C)C)NC1=O [Compound 3, Ac-Arg-cyclo[Cys-D-Tle-His-D-Phe-Arg-Trp-Cys]-NH2], the “Ratios of EC50 values MC ¾” value (MC3R) was 1, the EC50 (MC3R; [1]) was 0.0007 µM and the EC50 (MC4R; [2]) was 0.0007 µM. For the same compound, the “Ratios of EC50 values MC ¼” value (MC1R) was 1, the EC50 (MC1R; [3]) was 0.001 µM and the “Ratios of EC50 values MC 5/4” value (MC5R) was 930. It also gave an EC50 (MC5R; [4]) of 0.672 µM.

For CC(=O)N[C@@H](CCCNC(=N)N)C(=O)N[C@H]1CSSC[C@@H](C(N)=O)NC(=O)[C@H](Cc2c[nH]c3ccccc23)NC(=O)[C@H](CCCNC(=N)N)NC(=O)[C@@H](Cc2ccccc2)NC(=O)[C@H](Cc2c[nH]cn2)NC(=O)[C@@H](C(C)C)NC1=O [Compound 4, Ac-Arg-cyclo[Cys-D-Val-His-D-Phe-Arg-Trp-Cys]-NH2], the “Ratios of EC50 values MC ¾” value (MC3R) was 1.19, the EC50 (MC3R; [1]) was 0.00159 µM and the EC50 (MC4R; [2]) was 0.00134 µM. The “Ratios of EC50 values MC ¼” value (MC1R) was 0.93, the EC50 (MC1R; [3]) was 0.00125 µM and the “Ratios of EC50 values MC 5/4” value (MC5R) was 584. For the same compound, the EC50 (MC5R; [4]) was 0.782 µM.

In the case of CC(=O)N[C@@H](CCCNC(=N)N)C(=O)N[C@H]1CSSC[C@@H](C(N)=O)NC(=O)[C@H](Cc2c[nH]c3ccccc23)NC(=O)[C@H](CCCNC(=N)N)NC(=O)[C@@H](Cc2ccccc2)NC(=O)[C@H](Cc2cncn2C)NC(=O)[C@@H](C)NC1=O [Compound 5, Ac-Arg-cyclo[Cys-D-Ala-His(3-Me)-D-Phe-Arg-Trp-Cys]-NH2], the EC50 (MC3R) is reported as 0.406 µM, the “Ratios of EC50 values MC ¾” value (MC3R) is reported as 350 and the EC50 (MC4R) is reported as 0.00115 µM. The EC50 (MC1R) was 0.0041 µM, the “Ratios of EC50 values MC ¼” value (MC1R) was 4 and the EC50 (MC5R) was 1.08 µM. For the same compound, the “Ratios of EC50 values MC 5/4” value (MC5R) was 945.

In the case of CC(=O)N[C@@H](CCCNC(=N)N)C(=O)N[C@H]1CSSC[C@@H](C(N)=O)NC(=O)[C@H](Cc2c[nH]c3ccccc23)NC(=O)[C@H](CCCNC(=N)N)NC(=O)[C@@H](Cc2ccccc2)NC(=O)[C@H](Cc2cn(C)cn2)NC(=O)[C@@H](C)NC1=O [Compound 6, Ac-Arg-cyclo[Cys-D-Ala-His(1-Me)-D-Phe-Arg-Trp-Cys]-NH2], the EC50 (MC3R) is reported as 0.0043 µM, the “Ratios of EC50 values MC ¾” value (MC3R) is reported as 6 and the EC50 (MC4R) is reported as 0.0007 µM. The EC50 (MC1R) was 0.0304 µM, the “Ratios of EC50 values MC ¼” value (MC1R) was 40 and the EC50 (MC5R) was 0.467 µM. The “Ratios of EC50 values MC 5/4” value (MC5R) was 662.

CC(=O)N[C@@H](CCCNC(=N)N)C(=O)N[C@H]1CSSC[C@@H](C(N)=O)NC(=O)[C@H](Cc2c[nH]c3ccccc23)NC(=O)[C@H](CCCNC(=N)N)NC(=O)[C@@H](Cc2ccccc2)NC(=O)[C@H](Cc2c[nH]c3ccccc23)NC(=O)[C@@H](C)NC1=O [Compound 7, Ac-Arg-cyclo[Cys-D-Ala-Trp-D-Phe-Arg-Trp-Cys ]-NH2] (Ac-RC[dA]W[dF]RWC-NH2; disulfide 2-8) was tested, and the “Ratios of EC50 values MC ¾” value (MC3R) was >290, the EC50 (MC3R; [5]) was > 10 µM and the EC50 (MC4R; [2]) was 0.034 µM. The “Ratios of EC50 values MC ¼” value (MC1R) was 8, the EC50 (MC1R; [3]) was 0.273 µM and the “Ratios of EC50 values MC 5/4” value (MC5R) was 7. It also gave an EC50 (MC5R; [4]) of 0.259 µM.

With CC(=O)N[C@@H](CCCNC(=N)N)C(=O)N[C@H]1CSSC[C@@H](C(N)=O)NC(=O)[C@H](Cc2c[nH]c3ccccc23)NC(=O)[C@H](CCCNC(=N)N)NC(=O)[C@@H](Cc2ccccc2)NC(=O)[C@H](CCC(N)=O)NC(=O)[C@@H](C)NC1=O [Compound 8, Ac-Arg-cyclo[Cys-D-Ala-Gln-D-Phe-Arg-Trp-Cys]-NH2] (Ac-RC[dA]Q[dF]RWC-NH2; disulfide 2-8) the “Ratios of EC50 values MC ¾” value (MC3R) was 5, the EC50 (MC3R; [1]) was 0.0086 µM and the EC50 (MC4R; [2]) was 0.0016 µM. The “Ratios of EC50 values MC ¼” value (MC1R) was 40, the EC50 (MC1R; [3]) was 0.071 µM and the “Ratios of EC50 values MC 5/4” value (MC5R) was 155. The EC50 (MC5R; [4]) was 0.255 µM.

In the case of CC(=O)N[C@@H](CCCNC(=N)N)C(=O)N[C@H]1CSSC[C@@H](C(N)=O)NC(=O)[C@H](Cc2c[nH]c3ccccc23)NC(=O)[C@H](CCCNC(=N)N)NC(=O)[C@@H](Cc2ccccc2)NC(=O)[C@H](CC(N)=O)NC(=O)[C@@H](C)NC1=O [Compound 9, Ac-Arg-cyclo[Cys-D-Ala-Asn-D-Phe-Arg-Trp-Cys]-NH2] (Ac-RC[dA]N[dF]RWC-NH2; disulfide 2-8), the “Ratios of EC50 values MC ¾” value (MC3R) is reported as 30, the EC50 (MC3R; [1]) is reported as 0.081 µM and the EC50 (MC4R; [2]) is reported as 0.003 µM. The “Ratios of EC50 values MC ¼” value (MC1R) was 90, the EC50 (MC1R; [3]) was 0.248 µM and the “Ratios of EC50 values MC 5/4” value (MC5R) was 530. The EC50 (MC5R; [4]) was 1.49 µM.

In the case of CC(=O)N[C@@H](CCCNC(=N)N)C(=O)N[C@H]1CSSC[C@@H](C(N)=O)NC(=O)[C@H](Cc2c[nH]c3ccccc23)NC(=O)[C@H](CCCNC(=N)N)NC(=O)[C@@H](Cc2ccccc2)NC(=O)[C@H](CCCNC(=N)N)NC(=O)[C@@H](C)NC1=O [Compound 10, Ac-Arg-cyclo[Cys-D-Ala-Arg-D-Phe-Arg-Trp-Cys]-NH2] (Ac-RC[dA]R[dF]RWC-NH2; disulfide 2-8), the “Ratios of EC50 values MC ¾” value (MC3R) is reported as 1.45, the EC50 (MC3R; [1]) is reported as 0.0039 µM and the EC50 (MC4R; [2]) is reported as 0.0027 µM. For the same compound, the “Ratios of EC50 values MC ¼” value (MC1R) was 2.31 and the EC50 (MC1R; [3]) was 0.0062 µM.

For CC(=O)N[C@@H](CCCNC(=N)N)C(=O)N[C@H]1CSSC[C@@H](C(N)=O)NC(=O)[C@H](Cc2c[nH]c3ccccc23)NC(=O)[C@H](CCCNC(=N)N)NC(=O)[C@@H](Cc2ccccc2)NC(=O)[C@H](Cc2ccc(O)cc2)NC(=O)[C@@H](C)NC1=O [Compound 11, Ac-Arg-cyclo[Cys-D-Ala-Tyr-D-Phe-Arg-Trp-Cys]-NH2] (Ac-RC[dA]Y[dF]RWC-NH2; disulfide 2-8), the “Ratios of EC50 values MC ¾” value (MC3R) was >22.2, the EC50 (MC3R; [1]) was > 1 µM and the EC50 (MC4R; [2]) was 0.0451 µM. For the same compound, the “Ratios of EC50 values MC ¼” value (MC1R) was 6.67 and the EC50 (MC1R; [3]) was 0.301 µM.

For CC(=O)N[C@@H](CCCNC(=N)N)C(=O)N[C@H]1CSSC[C@@H](C(N)=O)NC(=O)[C@H](Cc2c[nH]c3ccccc23)NC(=O)[C@H](CCCNC(=N)N)NC(=O)[C@@H](Cc2ccccc2)NC(=O)[C@@H]2CCCN2C(=O)[C@@H](C)NC1=O [Compound 13, Ac-Arg-cyclo[Cys-D-Ala-Pro-D-Phe-Arg-Trp-Cys]-NH2] (Ac-RC[dA]P[dF]RWC-NH2; disulfide 2-8), the “Ratios of EC50 values MC ¾” value (MC3R) was >200, the EC50 (MC3R; [5]) was > 10 µM and the EC50 (MC4R; [2]) was 0.056 µM. For the same compound, the “Ratios of EC50 values MC ¼” value (MC1R) was 5, the EC50 (MC1R; [3]) was 0.28 µM and the “Ratios of EC50 values MC 5/4” value (MC5R) was 13. It also gave an EC50 (MC5R; [4]) of 0.707 µM.

From patent publication US10196425B2, “Peptide compositions” (RHYTHM PHARMACEUTICALS, INC., priority 2013, dated 2019)
